Test results as given in the supplement of paper PMC10307832.

Tests used:
Experiment in all cases: relative viability (nuclei count vs DMSO), 5 days (fraction); higher = more cells survive
NVP-TAE684 + Linsitinib = compound: COc1cc(N2CCC(N3CCN(C)CC3)CC2)ccc1Nc1ncc(Cl)c(Nc2ccccc2S(=O)(=O)C(C)C)n1 [NVP-TAE684] + C[C@]1(O)C[C@@H](c2nc(-c3ccc4ccc(-c5ccccc5)nc4c3)c3c(N)nccn32)C1 [Linsitinib] (partner 1 µM)
Outline: (§1)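 For relative viability, nuclei counts in treated wells were divided by those in vehicle wells. Lung cancer cell lines had been pin-tool dosed in 1536-well plates the day after seeding and cultured for 5 days, then fixed and stained in one step (final 0.05% Triton X-100, 1% formaldehyde, 1 ug/ml Hoechst) and imaged at 4×. Doses were one drug alone or a fixed anchor-drug dose plus five library-drug doses (not always all listed) in √10 steps, and values are duplicate-plate medians.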

CUDC-101 + OSI-027 = compound: C#Cc1cccc(Nc2ncnc3cc(OC)c(OCCCCCCC(=O)NO)cc23)c1 [CUDC-101] + COc1cccc2cc(-c3nc([C@H]4CC[C@H](C(=O)O)CC4)n4ncnc(N)c34)[nH]c12 [OSI-027] (partner 0.5 µM)
Outline: as §1

Vandetanib + Decitabine = compound: COc1cc2/c(=N/c3ccc(Br)cc3F)nc[nH]c2cc1OCC1CCN(C)CC1 [Vandetanib] + Nc1ncn([C@H]2C[C@H](O)[C@@H](CO)O2)c(=O)n1 [Decitabine] (partner 2 µM)
Outline: as §1

[1] = compound: C1=CC=C2C(=C1)N=C(S2)C(C#N)C3=NC(=NC=C3)NCCC4=CN=CC=C4 + Cc1nc(Nc2ncc(C(=O)Nc3c(C)cccc3Cl)s2)cc(N2CCN(CCO)CC2)n1 [Dasatinib] (partner 0.075 µM)
Outline: as §1

| Cell Line | relative viability (NVP-TAE684 + Linsitinib; first compound 0.2 µM) | relative viability (NVP-TAE684 + Linsitinib; first compound 0.6325 µM) | relative viability (NVP-TAE684 + Linsitinib; first compound 2 µM) | relative viability (CUDC-101 + OSI-027; first compound 0.01 µM) | relative viability (CUDC-101 + OSI-027; first compound 0.03162 µM) | relative viability (CUDC-101 + OSI-027; first compound 0.1 µM) | relative viability (CUDC-101 + OSI-027; first compound 0.3162 µM) | relative viability (CUDC-101 + OSI-027; first compound 1 µM) | relative viability (Vandetanib + Decitabine; first compound 0.02 µM) | relative viability (Vandetanib + Decitabine; first compound 0.06325 µM) | relative viability (Vandetanib + Decitabine; first compound 0.2 µM) | relative viability (Vandetanib + Decitabine; first compound 0.6325 µM) | relative viability (Vandetanib + Decitabine; first compound 2 µM) | relative viability ([1]; first compound 0.005 µM) | relative viability ([1]; first compound 0.01581 µM) | relative viability ([1]; first compound 0.05 µM) | relative viability ([1]; first compound 0.1581 µM) | relative viability ([1]; first compound 0.5 µM) |
| --- | --- | --- | --- | --- | --- | --- | --- | --- | --- | --- | --- | --- | --- | --- | --- | --- | --- | --- |
| ABC-1 | 0.825 | 0.742 | 0.358 | 0.601 | 0.461 | 0.454 | 0.373 | 0.142 | 1.14 | 1.04 | 1.13 | 1.4 | 0.833 | 0.634 | 0.459 | 0.631 | 0.573 | 0.397 |
| NCI-H2228 | 0.458 | 0.321 | 0.285 | 0.406 | 0.689 | 0.671 | 0.615 | 0.419 |  |  |  |  |  | 0.295 | 0.491 | 0.442 | 0.514 | 0.423 |
| NCI-H1563 | 1.07 | 1.25 |  | 0.732 | 0.751 | 0.783 | 0.728 | 0.675 |  |  |  |  |  | 0.536 | 0.413 | 0.426 | 0.44 | 0.473 |
| NCI-H1650 |  |  |  | 0.661 | 0.531 | 0.517 | 0.577 | 0.231 | 0.361 | 0.451 | 0.413 | 0.502 | 0.403 | 0.449 | 0.278 | 0.324 | 0.372 | 0.263 |
| NCI-H2170 |  |  |  | 0.697 | 0.765 | 0.605 | 0.686 | 0.619 | 0.44 | 0.478 | 0.472 | 0.458 | 0.455 | 0.447 | 0.498 | 0.501 | 0.675 | 0.611 |
| NCI-H1623 |  |  |  | 0.452 | 0.441 | 0.33 | 0.329 | 0.239 |  |  |  |  |  | 0.476 | 0.476 | 0.514 | 0.612 | 0.591 |
| NCI-H2342 |  |  |  | 0.579 | 0.607 | 0.59 | 0.673 | 0.725 | 0.727 | 0.75 | 0.8 | 0.699 | 0.723 | 0.32 | 0.314 | 0.349 | 0.328 | 0.337 |
| EBC-1 | 0.784 | 0.785 | 0.745 |  |  |  |  |  |  |  |  |  |  |  |  |  |  |  |
| ChaGo-K-1 |  |  |  | 0.527 | 0.579 | 0.541 | 0.538 | 0.43 | 0.518 | 0.519 | 0.287 | 0.496 | 0.523 |  | 0.567 | 0.577 | 0.681 | 0.545 |
| NCI-H1299 | 0.915 | 1.02 | 0.909 |  |  |  |  |  |  |  |  |  |  |  |  |  |  |  |
| Calu-6 | 0.805 | 0.935 | 0.634 |  |  |  |  |  |  |  |  |  |  |  |  |  |  |  |
| NCI-H1703 | 0.862 | 0.932 | 0.588 |  |  |  |  |  |  |  |  |  |  |  |  |  |  |  |
| CAL-12T | 0.726 | 0.767 | 0.541 | 0.706 | 0.668 | 0.777 | 0.71 | 0.575 |  |  |  |  |  | 0.236 | 0.308 | 0.341 | 0.508 | 0.242 |
| NCI-H1648 |  |  |  | 0.265 |  | 0.243 | 0.266 | 0.254 | 0.55 | 0.52 | 0.479 | 0.49 | 0.418 |  |  |  |  |  |
